Measurements reported in paper PMC8510269, “A Simple Method of Synthesis of 3-Carboxy-2,2,5,5-Tetraethylpyrrolidine-1-oxyl and Preparation of Reduction-Resistant Spin Labels and Probes of Pyrrolidine Series” (Molecules, 2021).
Like-named read-outs stand apart in the source and are kept apart here.

Experiments:
[1] = Partition coefficient octanol/water estimated from EPR amplitudes; format: physicochemical; details: ratio of concentrations in octanol to water; distilled water
Protocol: (§1) The EPR spectra in water were recorded on a Bruker ER-200D-SRC spectrometer in 50 µL glass capillary for 0.2–0.4 mM radical solutions degassed via bubbling with argon. Spectrometer settings: frequency, 9.87 GHz; microwave power, 5.0 mW; modulation amplitude, 0.05 mT; time constant, 50–100 ms; and conversion time, 5.12 ms. For kinetic measurements in water, stock solutions of nitroxide, ascorbic acid and glutathione in phosphate buffer (5 mM, pH 7.4) were prepared, and pH was adjusted to 7.4 with NaOH or HCl. All the solutions were deoxygenated with argon, carefully and quickly mixed in a small tube to attain final concentrations (nitroxide, 0.2–04 mM; GSH, 2 mM; and ascorbate, 100–300 mM) and were placed into an EPR capillary (50 μL). The capillary was sealed on both sides and placed into the EPR resonator. The decay of amplitude of the low-field component of the EPR spectrum was followed to obtain the kinetics. The initial part of the decay curves (up to 200 min) was used for fitting. Kinetics of the decay was fitted to a monoexponential function to calculate the first-order rate constants. Then, these constants were divided by the concentration of ascorbic acid to calculate the second-order reaction constants (Figure S3). Partition coefficients in a water–octanol mixture were estimated from the amplitudes of the EPR spectra of a nitroxide in water after extensive shaking with different portions of added octanol and separation using centrifugation.

[2] = Reduction of nitroxides with ascorbate in the presence of glutathione (EPR kinetics); format: physicochemical; details: nitroxide 0.3–0.4 mM, ascorbate 100–300 mM, 50 mM phosphate buffer, pH 7.4, 25 °C, glutathione 2 mM
Protocol: as §1, with “For kinetic measurements in water, stock solutions of nitroxide, ascorbic acid and glutathione in phosphate buffer (5 mM, pH 7.4) were prepared, and pH was adjusted to 7.4 with NaOH or HCl.” left out

[3] = Decay of nitroxides in murine blood (EPR); format: in vitro ADME, mice; details: nitroxide 0.2 mM
Protocol: (§2) The measurements of kinetics of nitroxide decay in blood and tissue homogenates were performed using an Elexsys E540 X-band spectrometer in a 50 µL glass capillary for 0.2 mM solutions, with the following spectrometer settings: frequency, 9.87 GHz; centerfield, 350.6 mT; sweep range, 10 mT; microwave power, 2.0 mW; modulation amplitude, 0.1 mT; time constant, 10.24 ms; and conversion time, 20.48 ms.
(§3) The stock solutions of the nitroxides 25 and 31 in water ([…]) were prepared, and pH was adjusted to 7.0 with NaOH. A total of 2 μL of the nitroxide solution was added to 98 μL of the blood or tissue homogenate, giving a nitroxide concentration equal to 0.2 mM. The resulting mixture of nitroxide with blood or tissue homogenate was transferred to the glass capillary (50 μL) and the latter was placed into the EPR resonator. The decay of the double integral of the EPR spectrum was followed to obtain the kinetics.
Male five-month-old C57BL/6 mice were obtained from the Breeding Experimental Animal Laboratory of the Institute of Cytology and Genetics (ICG), Siberian Division of the Russian Academy of Sciences (Novosibirsk, Russia). All the experiments were carried out according to Animal Care Regulations of the Institute of Cytology and Genetics (ICG), Novosibirsk. Animals were sacrificed by decapitation, blood was collected into a microcentrifuge tube with heparin (final concentration 5%), gently rocked by hand and snap-frozen with liquid nitrogen immediately after collection. Organ tissue (brain, heart, liver and kidney) was excised on ice, rinsed with ice-cold 10 mM PBS (pH 7.4), sheared with scissors and homogenized in PBS (1/1 by weight) on ice using electric homogenizer fitted with a Teflon head. The homogenates were then additionally mixed with PBS (1/1 by weight, final dilution 1/3) to decrease viscosity for further aspiration into glass capillaries, and snap-frozen in liquid nitrogen. […]

[4] = Decay of nitroxides in tissue homogenates (brain, kidney, liver, heart; EPR); format: in vitro ADME, mice; details: nitroxide 0.2 mM
Protocol: as §2, §3
Male five-month-old C57BL/6 mice were obtained from the Breeding Experimental Animal Laboratory of the Institute of Cytology and Genetics (ICG), Siberian Division of the Russian Academy of Sciences (Novosibirsk, Russia). All the experiments were carried out according to Animal Care Regulations of the Institute of Cytology and Genetics (ICG), Novosibirsk. […]

[5] = literature value, cited from earlier work
[6] = parameters: method as in PMID 25348344; details: cited from earlier work

| Compound | melting point | Kp (partition coefficient octanol/water) [1] | kred × 10^4 (second-order rate constant for the initial rate of reduction with ascorbate) [2] | further results |
| --- | --- | --- | --- | --- |
| CCC1(CC)CC(C(=O)OC)C(CC)(CC)N1O.Cl (stereo not shown) | 148 to 150 °C |  |  |  |
| CCC1(CC)CC(CN2CCCCC2)C(CC)(CC)N1[O] (stereo not shown) [Nitroxide 30, 3-((Piperidin-1-yl)methyl)-2,2,5,5-tetraethylpyrrolidine-1-oxyl] |  | 30 | 2.2 ± 0.5 M^−1 s^−1 |  |
| CCC1(CC)CC(C(=O)O)C(CC)(CC)N1 (stereo not shown) [Nitroxide 15, 3-Carboxy-2,2,5,5-tetraethylpyrrolidine] | 113 to 114 °C |  |  |  |
| 3-(2-Triphenylphosphonio)acetamidomethyl-2,2,5,5-tetraethylpyrrolidine-1-oxyl chloride [Nitroxide 28] |  | 13 | 2.4 ± 0.4 M^−1 s^−1 | Time to plateau of decay in blood [3]: 10 min; Decrease of concentration in blood ([3]; plateaus in 10 min): ca. 10%; Decay in homogenate of brain ([4]; mouse brain homogenate): Faster decay of 28 as compared to 22; Decay in homogenate of liver ([4]; mouse liver homogenate): Faster decay of 28 as compared to 22 |
| CCC1(CC)CC(C(=O)O)C(CC)(CC)N1[O] (stereo not shown) [Nitroxide 1, 3-Carboxy-2,2,5,5-tetraethylpyrrolidine-1-oxyl] |  | 270 | 3.3 ± 0.5 M^−1 s^−1 | kred × 10^4 (second-order rate constant of reduction with ascorbate) ([5]; ref 9): 20 ± 10 M^−1 s^−1; kred × 10^4 (second-order rate constant of reduction with ascorbate) ([5]; ref 14): ≤ 10 M^−1 s^−1; kred × 10^4 (second-order rate constant of reduction with ascorbate) ([5]; ref 45): 12.5 ± 0.3 M^−1 s^−1; Decay in cytosolic extract compared with trityl radical [6]: slower decay in cytosolic extract than trityl radical |
| CCC1=[N+]([O-])C(CC)(CC)C(C(=O)O)C1 (stereo not shown) [Nitroxide 8, 3-Carboxy-2,2,5-triethyl-3,4-dihydro-2H-pyrrole 1-oxide] | 145 to 146 °C |  |  |  |
| CCC1(CC)CC(CN)C(CC)(CC)N1[O] (stereo not shown) [Nitroxide 22, 3-Aminomethyl-2,2,5,5-tetraethylpyrrolidine-1-oxyl] |  | 5.5 | 4.1 ± 0.2 M^−1 s^−1 | Decay in blood (in words) ([3]; 30 min): No decay |
| CCC1(CC)CC(CNC(=O)CN2CCCC2)C(CC)(CC)N1[O] (stereo not shown) [Nitroxide 29, 3-(2-(Pyrrolidin-1-yl)acetamidomethyl)-2,2,5,5-tetraethylpyrrolidine-1-oxyl] |  | 70 | 2.5 ± 0.4 M^−1 s^−1 |  |
